Laboratory results as given in patent US11491158B2, “N-(substituted-phenyl)-sulfonamide derivatives as kinase inhibitors” (Nerviano Medical Sciences S.R.L., priority 2016, dated 2022).

Target: PERK recombinant enzyme (cytoplasmic domain corresponding to residues 540-1115) (Homo sapiens (Human), UniProt Q9NZJ5)
Assay: PERK enzyme assay, Method 1: ADP-Glo Kinase Assay (quantification of ADP formed)
Type: biochemical
Settings: 52 microM ATP, 8 nM PERK, 300 microM elF2alpha peptide substrate, 60 minutes
Experimental: The biochemical activity of compounds was determined by incubation with PERK recombinant enzyme (cytoplasmic domain corresponding to residues 540-1115) and elF2alpha peptide substrate (Aminoacid sequence: LLSELSRRRIRSINK—SEQ ID Nr: 1; purchased from American Peptide Company, product #341923). This was followed by:
Method 1: Quantification of the ADP Formed from the Kinase Reaction by ADP-Glo™ Kinase Assay (Promega Cat. 9102). Utra Pure ATP was Included into ADP-Glo™ Kinase Assay Kit. […]
After 60 minutes, an equal volume (15 microL) of ADP-Glo™ Reagent was added to each well to terminate the kinase reaction and deplete the remaining ATP. After 40 minutes, 30 microL of Kinase Detection Reagent is added, which simultaneously converts ADP to ATP and allows the newly synthesized ATP to be measured using a coupled luciferase/luciferin reaction. After further 40 minutes luminescence was read by ViewLux Instrument (Perkin Elmer). The data are analyzed by GraphPad Prism software which provides sigmoidal fittings of the curves for IC50 determination using a 4 parameter logistic equation: y=bottom+(top−bottom)/(1+10^((log IC50−x)*slope)) where x is the logarithm of the inhibitor concentration, y is the response; y starts at bottom and goes to top with a sigmoid shape. Method 2: Quantification of the Phosphorylated Product Formed from the Kinase Reaction in Presence of ATP (Aldrich, Cat #A2620-9).

Sequence of PERK recombinant enzyme (cytoplasmic domain corresponding to residues 540-1115) (Q9NZJ5 540-1115): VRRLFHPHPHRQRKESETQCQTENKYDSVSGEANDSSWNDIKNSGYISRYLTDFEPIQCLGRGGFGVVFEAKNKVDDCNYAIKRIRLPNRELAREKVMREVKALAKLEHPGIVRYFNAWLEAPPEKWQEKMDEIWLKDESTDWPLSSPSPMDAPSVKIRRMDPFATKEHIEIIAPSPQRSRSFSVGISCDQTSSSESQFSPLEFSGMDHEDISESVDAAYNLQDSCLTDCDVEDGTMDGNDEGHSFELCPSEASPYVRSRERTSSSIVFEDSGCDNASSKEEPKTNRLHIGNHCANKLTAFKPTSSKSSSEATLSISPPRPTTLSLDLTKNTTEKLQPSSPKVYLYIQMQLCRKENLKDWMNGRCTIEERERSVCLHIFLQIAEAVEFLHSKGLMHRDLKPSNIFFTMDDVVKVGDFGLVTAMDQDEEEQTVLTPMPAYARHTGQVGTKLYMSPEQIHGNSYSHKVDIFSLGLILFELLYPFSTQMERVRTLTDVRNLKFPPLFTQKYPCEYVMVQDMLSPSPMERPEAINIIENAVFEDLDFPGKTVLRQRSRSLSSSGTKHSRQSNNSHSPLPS

SMILES: COc1ccc(S(=O)(=O)Nc2cccc(-c3csc4ccnc(N)c34)c2F)cc1C [Cmpd 60, N-[3-(4-Amino-thieno[3,2-c]pyridin-3-yl)-2-fluoro-phenyl]-4-methoxy-3-methyl-benzenesulfonamide]
- pIC50: C (pIC50 < 6.8)
